Experimental data: ChEMBL document CHEMBL1201862, “PubChem BioAssay data set” (2004)
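Each compound was tested at five concentrations against cells in 96-well plates for 48 hours. Here, GI50 denotes the concentration required for 50% inhibition of growth.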 Calls of active or inactive are those of the source. Cut-off read from the data, not from the text of the source: active = GI50 up to about 1.1 µM and inactive = higher.

Columns and labels:
Experiment in all cases: DTP human tumour cell line panel, 48 h
[1] = tested on: K562
[2] = tested on: U-251
[3] = tested on: A549
[4] = tested on: HCC 2998
[5] = tested on: NCI-H226
[6] = tested on: Hs-578T
[7] = tested on: ACHN
[8] = tested on: NCI-H522
[9] = tested on: OVCAR-8
[10] = tested on: SF-295
[11] = tested on: HOP-62
[12] = tested on: OVCAR-5
[13] = tested on: SK-MEL-2
[14] = tested on: MOLT-4
[15] = tested on: LOX IMVI
[16] = tested on: CAKI-1
[17] = tested on: OVCAR-3
[18] = tested on: TK-10
[19] = tested on: HOP-92
[20] = tested on: MDA-MB-231
[21] = tested on: UACC-62
[22] = tested on: KM12
[23] = tested on: RXF 393
[24] = tested on: RPMI-8226
[25] = tested on: Malme-3M
[26] = tested on: MDA-N
[27] = tested on: SF-539
[28] = tested on: SR
[29] = tested on: A498
[30] = tested on: BT-549
[31] = tested on: HCT-15
[32] = tested on: NCI-H460
[33] = tested on: HL-60
[34] = tested on: CCRF-CEM
[35] = tested on: MDA-MB-435
[36] = tested on: SK-OV-3
[37] = tested on: PC-3
[38] = tested on: HCT-116
[39] = tested on: HT-29
[40] = tested on: MCF7
[41] = tested on: SN12C
[42] = tested on: UACC-257
[43] = tested on: OVCAR-4
[44] = tested on: NCI/ADR-RES
[45] = tested on: NCI-H23
[46] = tested on: SW-620
[47] = tested on: SNB-19
[48] = tested on: EKVX
[49] = tested on: 786-0
[50] = tested on: DU-145
[51] = tested on: SK-MEL-28
[52] = tested on: T47D
[53] = tested on: IGROV-1
[54] = tested on: SNB-75
[55] = tested on: UO-31
[56] = tested on: COLO 205
[57] = tested on: SF-268
[58] = tested on: M14
[59] = tested on: SK-MEL-5

Structure (SMILES): COc1ccc(SCc2cc(OC)ccc2OC)cc1
- GI50 [1]: 4.24 µM (inactive)
- GI50 [2]: 11.2 µM (inactive)
- GI50 [3]: 22.4 µM (inactive)
- GI50 [4]: 9.77 µM (inactive)
- GI50 [5]: 25.3 µM (inactive)
- GI50 [6]: 29.5 µM (inactive)
- GI50 [7]: 97.3 µM (inactive)
- GI50 [8]: 18.8 µM (inactive)
- GI50 [9]: 96.4 µM (inactive)
- GI50 [10]: 32.2 µM (inactive)
- GI50 [11]: 59.8 µM (inactive)
- GI50 [12]: 24.5 µM (inactive)
- GI50 [13]: 8.59 µM (inactive)
- GI50 [14]: 8.24 µM (inactive)
- GI50 [15]: 34.8 µM (inactive)
- GI50 [16]: 31.9 µM (inactive)
- GI50 [17]: > 40.6 µM (inactive)
- GI50 [18]: > 93.3 µM (inactive)
- GI50 [19]: 13.5 µM (inactive)
- GI50 [20]: 82.2 µM (inactive)
- GI50 [21]: 18.8 µM (inactive)
- GI50 [22]: 4.23 µM (inactive)
- GI50 [23]: 40.6 µM (inactive)
- GI50 [24]: 34 µM (inactive)
- GI50 [25]: 55.6 µM (inactive)
- GI50 [26]: 3.33 µM (inactive)
- GI50 [27]: 39.2 µM (inactive)
- GI50 [28]: 6.55 µM (inactive)
- GI50 [29]: 18.7 µM (inactive)
- GI50 [30]: 16.1 µM (inactive)
- GI50 [31]: 6.58 µM
- GI50 [32]: 37.4 µM (inactive)
- GI50 [33]: 6.01 µM (inactive)
- GI50 [34]: 17.5 µM (inactive)
- GI50 [35]: 2.75 µM (inactive)
- GI50 [36]: 12 µM (inactive)
- GI50 [37]: 32.8 µM (inactive)
- GI50 [38]: 33.8 µM (inactive)
- GI50 [39]: 13.7 µM (inactive)
- GI50 [40]: 15.1 µM (inactive)
- GI50 [41]: 55.3 µM (inactive)
- GI50 [42]: 74 µM (inactive)
- GI50 [43]: 20.8 µM (inactive)
- GI50 [44]: 13.2 µM (inactive)
- GI50 [45]: 37.9 µM (inactive)
- GI50 [46]: 10.6 µM (inactive)
- GI50 [47]: 34 µM (inactive)
- GI50 [48]: > 56.1 µM (inactive)
- GI50 [49]: > 85.5 µM (inactive)
- GI50 [50]: 44.4 µM (inactive)
- GI50 [51]: 64.3 µM (inactive)
- GI50 [52]: 25.5 µM (inactive)
- GI50 [53]: 15.9 µM (inactive)
- GI50 [54]: 11.1 µM (inactive)
- GI50 [55]: 27.6 µM (inactive)
- GI50 [56]: 15.6 µM (inactive)
- GI50 [57]: > 56.6 µM (inactive)
- GI50 [58]: 57.5 µM (inactive)
- GI50 [59]: 16.1 µM (inactive)

Structure (SMILES): O=c1cc(-c2ccc(O)c(O)c2)oc2cc(O[C@H]3O[C@H](CO)[C@@H](O)[C@H](O)[C@H]3O)cc(O)c12
- GI50 [2]: > 100 µM (inactive)
- GI50 [3]: 79.8 µM (inactive)
- GI50 [4]: > 100 µM (inactive)
- GI50 [5]: > 100 µM (inactive)
- GI50 [6]: 29.3 µM (inactive)
- GI50 [7]: 65.5 µM (inactive)
- GI50 [8]: 41.3 µM (inactive)
- GI50 [9]: > 100 µM (inactive)
- GI50 [10]: > 100 µM (inactive)
- GI50 [11]: > 100 µM (inactive)
- GI50 [12]: > 100 µM (inactive)
- GI50 [13]: 99.8 µM (inactive)
- GI50 [14]: 21.4 µM (inactive)
- GI50 [15]: 35.6 µM (inactive)
- GI50 [16]: 89.9 µM (inactive)
- GI50 [17]: 81.7 µM (inactive)
- GI50 [18]: > 100 µM (inactive)
- GI50 [19]: > 100 µM (inactive)
- GI50 [20]: > 100 µM (inactive)
- GI50 [21]: 93.1 µM (inactive)
- GI50 [22]: 38 µM (inactive)
- GI50 [23]: > 100 µM (inactive)
- GI50 [24]: 73.5 µM (inactive)
- GI50 [25]: > 100 µM (inactive)
- GI50 [26]: > 100 µM (inactive)
- GI50 [27]: > 100 µM (inactive)
- GI50 [28]: 5.69 µM (inactive)
- GI50 [29]: 78.2 µM (inactive)
- GI50 [30]: > 100 µM (inactive)
- GI50 [31]: 41.5 µM
- GI50 [32]: 34.8 µM (inactive)
- GI50 [33]: 37.7 µM (inactive)
- GI50 [35]: > 100 µM (inactive)
- GI50 [36]: > 100 µM (inactive)
- GI50 [37]: 70.6 µM (inactive)
- GI50 [38]: 28.8 µM (inactive)
- GI50 [39]: 67.8 µM (inactive)
- GI50 [40]: > 100 µM (inactive)
- GI50 [41]: > 100 µM (inactive)
- GI50 [42]: > 100 µM (inactive)
- GI50 [43]: > 100 µM (inactive)
- GI50 [44]: > 100 µM (inactive)
- GI50 [45]: > 100 µM (inactive)
- GI50 [46]: > 100 µM (inactive)
- GI50 [47]: 75.9 µM (inactive)
- GI50 [48]: 56.6 µM (inactive)
- GI50 [49]: > 100 µM (inactive)
- GI50 [50]: > 100 µM (inactive)
- GI50 [51]: 59.3 µM (inactive)
- GI50 [52]: 89.1 µM (inactive)
- GI50 [53]: > 100 µM (inactive)
- GI50 [54]: 20.2 µM (inactive)
- GI50 [55]: 11.2 µM (inactive)
- GI50 [56]: > 100 µM (inactive)
- GI50 [57]: 62.1 µM (inactive)
- GI50 [58]: > 100 µM (inactive)
- GI50 [59]: 70.1 µM (inactive)

Structure (SMILES): Fc1ccc(/N=C/C=C/Nc2ccc(F)cc2)cc1
- GI50 [1]: 0.278 µM (active)
- GI50 [2]: 7.41 µM (inactive)
- GI50 [3]: 8.67 µM (inactive)
- GI50 [4]: 3.05 µM (inactive)
- GI50 [5]: 19.5 µM (inactive)
- GI50 [6]: 19.9 µM (inactive)
- GI50 [7]: 0.11 µM (active)
- GI50 [8]: 13.5 µM (inactive)
- GI50 [9]: 12.9 µM (inactive)
- GI50 [10]: 8.28 µM (inactive)
- GI50 [11]: 17.7 µM (inactive)
- GI50 [12]: 12.1 µM (inactive)
- GI50 [13]: 13.6 µM (inactive)
- GI50 [14]: 12.9 µM (inactive)
- GI50 [15]: 0.817 µM (active)
- GI50 [16]: 12.7 µM (inactive)
- GI50 [17]: 16 µM (inactive)
- GI50 [19]: 17.6 µM (inactive)
- GI50 [20]: 15.8 µM (inactive)
- GI50 [21]: 0.509 µM (active)
- GI50 [22]: 3.31 µM (inactive)
- GI50 [23]: 15.8 µM (inactive)
- GI50 [24]: 12.4 µM (inactive)
- GI50 [25]: 16.4 µM (inactive)
- GI50 [26]: 2.75 µM (inactive)
- GI50 [27]: 14.1 µM (inactive)
- GI50 [28]: 2.44 µM (inactive)
- GI50 [29]: 15.5 µM (inactive)
- GI50 [30]: 14.1 µM (inactive)
- GI50 [31]: 0.31 µM
- GI50 [32]: 6.19 µM (inactive)
- GI50 [33]: 2.26 µM (inactive)
- GI50 [34]: 4.67 µM (inactive)
- GI50 [35]: 5.3 µM (inactive)
- GI50 [36]: 15.3 µM (inactive)
- GI50 [37]: 8.91 µM (inactive)
- GI50 [38]: 3 µM (inactive)
- GI50 [39]: 5.35 µM (inactive)
- GI50 [40]: 11.7 µM (inactive)
- GI50 [41]: 14 µM (inactive)
- GI50 [42]: 13.5 µM (inactive)
- GI50 [43]: 15.3 µM (inactive)
- GI50 [44]: 11.9 µM (inactive)
- GI50 [45]: 15 µM (inactive)
- GI50 [46]: 3.32 µM (inactive)
- GI50 [47]: 13.3 µM (inactive)
- GI50 [48]: 12.9 µM (inactive)
- GI50 [49]: 4.3 µM (inactive)
- GI50 [50]: 13.5 µM (inactive)
- GI50 [51]: 7.5 µM (inactive)
- GI50 [52]: 6.37 µM (inactive)
- GI50 [53]: 12.8 µM (inactive)
- GI50 [54]: 15 µM (inactive)
- GI50 [55]: 6.73 µM (inactive)
- GI50 [56]: 1.55 µM (inactive)
- GI50 [57]: 13.4 µM (inactive)
- GI50 [58]: 0.137 µM (active)
- GI50 [59]: 4.84 µM (inactive)
